# Reference: patent publication US20040157930A1, “Histone deacetylase enzyme-inhibiting derivatives of hydroxamic acid as new cytokine synthesis-inhibiting anti-inflammatory drugs” (priority 2001, published 2004)
# Experiments:
# TNFα [1] = experiment: TNFα inhibition test (Moreira et al.); assay type: cell-based; settings: for IC50: read-out: TNF IC50; for TNF Potency: relative potency, compound 1 = 100.00
# Source text: A series of hydroxamic acid derivatives described in EP 901465 were subjected to the histone deacetylase (HDAC) and TNFα inhibition tests in accordance with the methods described by Lechner et al., Biochim Biophys. Acta 1996, 1296, 181-188 and Moreira A. L. et al., J. Exp. Med. 1993, […] respectively.
# TNFα [2] = experiment: LPS-stimulated PBMC cytokine production in vitro: TNFα (ECL); assay type: cell-based; settings: Homo sapiens, LPS 10 ng/ml, 24 h
# Experimental: (§1) Samples of peripheral blood or buffy coats from healthy volunteers were used. […] At the end of the treatment the pro-inflammatory cytokines TNFα, IL-1β were measured by means of an electrochemiluminescence assay (ECL) using specific commercial antibodies.
# IL-1β = experiment: LPS-stimulated PBMC cytokine production in vitro: IL-1β (ECL); assay type: cell-based; settings: Homo sapiens, LPS 10 ng/ml, 24 h
# Experimental: as §1
# IFNγ [3] = experiment: IFNγ synthesis by PBMCs stimulated with IL-12 and IL-18 (ELISA); assay type: cell-based; settings: Homo sapiens; PBMC, IL-12 10 ng/ml + IL-18 20 ng/ml, 48 h; read-out: IFNγ (from IL-12 + IL-18) IC50
# Experimental: Cytokine IFNγ is produced by the T lymphocytes following their stimulation by pro-inflammatory cytokines, especially IL-12 and IL-18 (Dinarello C. A. and Moldawer L. L. Proinflammatory and anti-inflammatory cytokines in rheumatoid arthritis. A primer for clinicians. 2nd Edition, Amgen Inc., 2000).
# At the end, the cells were stimulated for 48 hours in the presence of the compound by simultaneous addition of recombinant IL-12 (10 ng/ml) and recombinant IL-18 (20 ng/ml). The quantity of IFNγ produced was determined with a commercial ELISA assay.
# IFNγ [4] = experiment: LPS-stimulated PBMC cytokine production in vitro: IFNγ (ELISA); settings: Homo sapiens, 24 h, read-out: IFNγ IC50
# Experimental: (§2) Interferon γ (IFNγ) was measured with a commercially available ELISA assay.
# [5] = test system: inflammatory cytokines induced by LPS; experiment: LPS-stimulated PBMC cytokine production, summary over all cytokines; settings: Homo sapiens, read-out: IC50, synthesis of all the inflammatory cytokines induced by LPS
# Experimental: as §2
IC50 (TNFα [1]) [nM],Structure (SMILES),TNF Potency (TNFα [1]),further results
10.2,CCN(CC)Cc1ccc2cc(CCC(=O)Nc3ccc(C(=O)NO)cc3)ccc2c1 [Compound 2],68.75,
10.3,CCN(CC)Cc1ccc(COC(=O)Nc2ccc(C(=O)NO)cc2)c2ccccc12 [Compound 3],68.02,
12.7,CCCN(CCC)Cc1ccc2cc(COC(=O)Nc3ccc(C(=O)NO)cc3)ccc2c1 [Compound 5],55.28,
65.5,O=C(Nc1ccc(C(=O)NO)cc1)OCC1CCc2ccccc2C1 (centres unmarked) [Compound 7],10.68,
67.6,CCCCN(CCCC)Cc1ccc2cc(COC(=O)Nc3ccc(C(=O)NO)cc3)ccc2c1 [Compound 8],10.32,
159,O=C(Nc1ccc(C(=O)NO)cc1)OCCC12CC3CC(CC(C3)C1)C2 [Compound 9],4.40,
300,O=C(CCCCc1ccccc1)Nc1ccc(C(=O)NO)cc1 [Compound 14],2.33,
1000,CC[N+]([O-])(CC)Cc1ccc2cc(COC(=O)Nc3ccc(C(=O)NO)cc3)ccc2c1 [Compound 15],0.70,

# Continued, compound first:
Structure (SMILES),IC50 (TNFα [1]) [nM],TNF Potency (TNFα [1]),further results
CCN(CC)Cc1ccc2cc(COC(=O)Nc3ccc(C(=O)NO)cc3)ccc2c1 [Compound 1],7,100.00,
CCN(CC)Cc1ccc2cc(CNC(=O)Nc3ccc(C(=O)NO)cc3)ccc2c1 [Compound 4],11.2,62.68,
O=C(Nc1ccc(C(=O)NO)cc1)OCc1ccc2c(c1)OCO2 [Compound 6],50,14.00,
O=C(Nc1ccc(C(=O)NO)cc1)OCCCc1ccccc1 [Compound 10],159,4.40,
O=C(Nc1ccc(C(=O)NO)cc1)OCc1ccc2ccccc2c1 [Compound 11],159,4.40,
O=C(Nc1ccc(C(=O)NO)cc1)OCCCc1ccccn1 [Compound 12],230,3.04,
O=C(Nc1ccc(C(=O)NO)cc1)OCCCc1ccncc1 [Compound 13],270,2.59,
"CC(/C=C/C(=O)NO)=C\[C@@H](C)C(=O)c1ccc(N(C)C)cc1 [TSA, trichostatin]",,,IC50 (TNFα [2]): 50 nM; IC50 (IL-1β): 100 nM; IC50 (IFNγ [3]): 490 nM; IC50 (IFNγ [4]): 10 nM; IC50 [5]: 50 to 200 nM
